Results: PMC9886266, “New [1,2,4]triazolo[4,3-c]quinazolines as intercalative Topo II inhibitors: Design, synthesis, biological evaluation, and in silico studies” (PLOS ONE, 2023)

Legend:
HCT-116 cells = assay: Flow cytometry apoptosis analysis (Annexin V and PI double staining); type: cell-based, human; details: HCT-116, 2.44 μM, 48 h
Description: The Annexin V and PI double staining experiment was used to further investigate the apoptotic effect of compound 16 in HCT-116 cells. In this process, HCT-116 cells were treated with compound 16 at a concentration of 2.44 μM and incubated for 48 h. The apoptotic effect of compound 16 on HCT-116 cells was about nine times greater than that of untreated HCT-116 cells. In comparison to control cells (5.62%), compound 16 caused 48.82% programmed cell death (early apoptosis = 46.77% & late apoptosis = 2.05%) (Table 3 and Fig 4B).
Flow cytometry cell apoptosis analysis was used to investigate the apoptotic effect of compound 16 as follows.
[…] cells were treated with compound 16 (2.44 μM) for 48 h, collected by trypsin, centrifuged, washed two successive times with PBS, suspended in 500 μl binding buffer, and double stained with 5 μl Annexin V-FITC and 5 μl PI in the dark at room temperature for 15 min. The stained cells were measured using Epics XL-MCL™ Flow Cytometer and analyzed using Flowing software. […]
S2.6. Flow cytometry analysis for apoptosis
Flow cytometry cell apoptosis analysis was used to investigate the apoptotic effect of the synthesized compounds. […] cells were treated with compound 16 (2.44 µM) for 48 h, collected by trypsin, centrifuged, washed two successive times with PBS, suspended in 500 μl binding buffer, and double stained with 5 μl Annexin V-FITC and 5 μl PI in the dark at room temperature for 15 min. The stained cells were measured using Epics XL-MCL™ Flow Cytometer and analyzed using Flowing software.

[1] = test system: Activated Calf Thymus DNA; assay: DNA/methyl green assay (DNA intercalation); type: binding
Description: The most promising members (13a, 14a, 16, 17, 18, 19, and 20) were further investigated for their binding affinity against DNA. […] The results of DNA-binding affinities were reported in Table 1 as IC50 values calculated from the concentration-inhibition response curve.
Activated Calf Thymus DNA (Merk, Germany) was treated with methyl green (Merk, Germany), then the synthesized compounds were applied to displace the methyl green dye, producing equivalent color.
(§1) After that, the DNA was run on 1% agarose gel in BioRad gel electrophoresis system for 1–2 h followed by staining with GelRedTM stain for 2 h and destained for 15 min with TAE buffer. The gel was imaged via BioRad’s Gel DocTMEZ system. Both supercoiled and linear strands DNA were incorporated in the gel as markers for DNA-Topo II intercalators. The results of IC50 values were calculated using the GraphPad Prism version 7. Each reaction was performed in duplicate, and at least three independent determinations of each IC50 were made.
S2.3. DNA/Methyl Green Assay […]
methyl green dye method described by Burres et al. Activated Calf Thymus DNA (Merk, Germany) was treated with methyl green (Merk, Germany), then the synthesized compounds were applied to displace the methyl green dye, producing equivalent color. […]

[2] = biological target: T1, Topoisomerase II (Topo II) (Homo sapiens, UniProt P11388); assay: In vitro Topo II inhibitory assay (TopoGEN Topo II drug screening kit); type: biochemical
T1 construct: purchased TopoGEN, Inc., Columbus
T1 sequence (P11388 whole entry): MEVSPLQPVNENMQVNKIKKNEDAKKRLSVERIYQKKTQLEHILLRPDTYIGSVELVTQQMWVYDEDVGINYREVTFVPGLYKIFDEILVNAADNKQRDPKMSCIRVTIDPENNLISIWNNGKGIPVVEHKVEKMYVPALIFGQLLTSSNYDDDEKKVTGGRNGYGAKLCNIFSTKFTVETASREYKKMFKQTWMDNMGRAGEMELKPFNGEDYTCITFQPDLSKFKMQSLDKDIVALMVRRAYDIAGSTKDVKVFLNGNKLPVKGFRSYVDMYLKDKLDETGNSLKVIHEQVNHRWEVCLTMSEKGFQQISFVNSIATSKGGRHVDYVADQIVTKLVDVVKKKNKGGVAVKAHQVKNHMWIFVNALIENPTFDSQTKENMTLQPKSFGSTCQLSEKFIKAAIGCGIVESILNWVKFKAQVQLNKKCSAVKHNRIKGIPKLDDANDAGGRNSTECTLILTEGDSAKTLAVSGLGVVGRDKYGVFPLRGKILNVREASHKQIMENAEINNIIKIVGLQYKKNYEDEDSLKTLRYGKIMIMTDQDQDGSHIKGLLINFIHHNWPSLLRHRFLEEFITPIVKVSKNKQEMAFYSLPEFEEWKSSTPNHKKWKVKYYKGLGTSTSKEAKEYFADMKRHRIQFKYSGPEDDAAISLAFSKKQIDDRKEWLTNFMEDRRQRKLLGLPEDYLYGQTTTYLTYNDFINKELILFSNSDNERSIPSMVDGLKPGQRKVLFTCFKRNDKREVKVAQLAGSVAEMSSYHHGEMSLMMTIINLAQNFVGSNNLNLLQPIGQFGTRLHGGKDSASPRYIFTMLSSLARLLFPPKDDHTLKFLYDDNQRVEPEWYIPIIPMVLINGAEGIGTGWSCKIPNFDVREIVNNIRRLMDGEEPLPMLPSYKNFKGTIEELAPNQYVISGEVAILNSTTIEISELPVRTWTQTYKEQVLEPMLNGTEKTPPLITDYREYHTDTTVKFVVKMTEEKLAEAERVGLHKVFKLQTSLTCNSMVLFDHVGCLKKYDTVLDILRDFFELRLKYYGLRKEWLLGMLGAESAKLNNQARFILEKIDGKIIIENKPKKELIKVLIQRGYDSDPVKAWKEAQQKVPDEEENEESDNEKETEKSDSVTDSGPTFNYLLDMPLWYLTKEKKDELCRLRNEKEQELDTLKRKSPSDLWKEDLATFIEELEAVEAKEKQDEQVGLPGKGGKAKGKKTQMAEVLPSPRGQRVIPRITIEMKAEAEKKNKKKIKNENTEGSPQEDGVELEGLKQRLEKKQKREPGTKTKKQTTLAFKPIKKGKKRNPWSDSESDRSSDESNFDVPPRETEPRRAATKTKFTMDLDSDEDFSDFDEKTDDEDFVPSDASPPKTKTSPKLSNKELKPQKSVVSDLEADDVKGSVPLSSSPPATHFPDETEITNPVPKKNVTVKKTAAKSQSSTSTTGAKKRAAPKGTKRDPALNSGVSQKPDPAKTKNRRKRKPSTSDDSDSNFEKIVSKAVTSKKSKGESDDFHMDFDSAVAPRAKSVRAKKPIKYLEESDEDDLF
Description: The reported method described by Patra et al was applied using Topo II drug screening kit (TopoGEN, Inc., Columbus).
A typical enzyme reaction was structured to determine Topo II activity. The reaction mixture included Topo II (2 μl), substrate super coiled pHot1 DNA (0.25 μg), 50 μg/ml test compound (2 μl), and assay buffer (4 μl). To start the reaction, the mixture was allowed to incubate in 37°C for 30 min. To terminate the reaction, a mixture of 10% sodium dodecylsulphate (2 μl) and proteinase K (50 μg/mL) was added at 37°C for 15 min. then incubated for 15 min at 37°C.
as §1, with “made. […]” for “made.”
S2.2. Measurement of topoisomerase II Activity […]
analyzed for their Topo II inhibitory activities. The reported method described by Patra et al was applied using Topo II drug screening kit (TopoGEN, Inc., Columbus).
A typical enzyme reaction was structured to determine Topo II activity. The reaction mixture included Topo II (2 µl), substrate super coiled pHot1 DNA (0.25 µg), 50 µg/ml test compound (2 µl), and assay buffer (4 µl). To start the reaction, the mixture was allowed to incubate in 37 °C for 30 min. To terminate the reaction, a mixture of 10% sodium dodecylsulphate (2 µl) and proteinase K (50 µg/mL) was added at 37 °C for 15 min. then incubated for 15 min at 37 °C.
as §1, with “made. […]” for “made.”

Vero cells = assay: In vitro cytotoxicity against normal cell line; type: cell-based
Source text: Although Vero cell are not human cell, it was reported that Vero cells can be used as normal cells to validate the toxicity of the synthesized compounds [43].

## CCCNc1nc2ccccc2c2nnc(C(F)(F)F)n12 [Compound 16, N-Propyl-3-(trifluoromethyl)-[1,2,4]triazolo[4,3-c]quinazolin-5-amine]
HCT-116 cells; mean ± SEM
  Apoptosis Early (Right Bottom): 46.77 ± 0.83 %
  Apoptosis Late (Right Top): 2.05 ± 0.92%
  Necrosis (Left Top): 0.90 ± 0.36
  Viable (Left Bottom): 50.28 ± 2.10
HCT-116 cells; control cells 5.62%
  Programmed cell death (early + late apoptosis): 48.82%
[1]; 50% inhibition concentration of DNA/methyl green assay, read-out: DNA/Methyl green (IC50)
  IC50: 10.2 ± 0.4 µM
[1]; log of drug concentration in uM, supplement curve fit
  LogIC50 (best-fit value, DNA/Topo-II Inhibition (%) curve): 1.011
[1]; supplement curve fit
  HillSlope (best-fit value, DNA/Topo-II Inhibition (%) curve): 0.3743
[2]
  IC50: 15.2 ± 0.9 µM
Vero cells; Chlorocebus sabaeus, Vero
  IC50: 63.4 µM
Vero cells; Vero vs HCT-116
  Selectivity: activity against HCT-116 compared with normal Vero cells: 26 fold
Vero cells; Vero vs HepG2
  Selectivity: activity against HepG2 compared with normal Vero cells: 10 fold
Vero cells; compared with sorafenib
  Toxicity to Vero cells less than that of sorafenib: about 2.5 fold
